The test addresses T1, Human complement C1s enzyme (Homo sapiens, UniProt P09871).
T1 construct: purified from human serum, Complement Technology, Inc; purchased Complement Technology, Inc; host or cells: human serum
T1 sequence (P09871 438-688 limits assumed): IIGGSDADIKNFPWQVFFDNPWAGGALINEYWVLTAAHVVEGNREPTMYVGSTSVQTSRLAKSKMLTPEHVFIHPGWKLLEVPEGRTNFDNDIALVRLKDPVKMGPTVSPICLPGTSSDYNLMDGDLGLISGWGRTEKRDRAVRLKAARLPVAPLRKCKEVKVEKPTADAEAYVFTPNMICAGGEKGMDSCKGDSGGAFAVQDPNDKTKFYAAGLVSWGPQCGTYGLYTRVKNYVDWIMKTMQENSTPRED
T1 sequence (P09871 16-437 partner limits assumed): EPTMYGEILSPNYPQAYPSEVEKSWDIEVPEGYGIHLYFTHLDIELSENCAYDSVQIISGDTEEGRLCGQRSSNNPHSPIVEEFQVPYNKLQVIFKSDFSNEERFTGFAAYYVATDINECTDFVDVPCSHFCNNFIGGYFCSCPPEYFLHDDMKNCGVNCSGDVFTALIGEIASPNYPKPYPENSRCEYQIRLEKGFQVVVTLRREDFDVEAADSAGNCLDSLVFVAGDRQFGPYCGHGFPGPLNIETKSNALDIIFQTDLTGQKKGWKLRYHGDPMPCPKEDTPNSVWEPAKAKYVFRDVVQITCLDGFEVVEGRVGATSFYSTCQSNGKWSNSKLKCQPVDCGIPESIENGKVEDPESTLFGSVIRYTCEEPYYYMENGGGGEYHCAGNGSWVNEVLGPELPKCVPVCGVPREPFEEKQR
Kind of test: Human C1s Enzyme Assay. The class given is biochemical. The settings on record: human C1s 1.16 nM, 5 min preincubation, substrate Z-L-Lys-SBzl 100 μM, A405; read-out: C1s Protease Activity. How it is done: The assay of Example 3 was used to determine the IC50's of the compounds. Other standard complement assays are also available.
Example 3. Human C1s Enzyme Assay
Human complement C1s enzyme (purified from human serum, Complement Technology, Inc.) at 1.16 nM final concentration was incubated with test compound at various concentrations for 5 min at room temperature in 50 mM Tris, 1 M NaCl, pH 7.5. A synthetic substrate Z-L-Lys-SBzl and DTNB (Ellman's reagent) were added to final concentrations of 100 μM each. Absorbance at 405 nm (A405) was recorded at 30 second intervals for 30 min using a microplate spectrophotometer. IC50 values were calculated by nonlinear regression of complement C1s reaction rates as a function of test compound concentration.
For `C[C@@H](NC(=O)[C@@H]1C[C@@H](S(C)(=O)=O)CN1C(=O)CNC(=O)c1ccc(Oc2ccccc2)cc1)c1cc(C(=N)N)cs1` [Compound 192, (2S,4R)-N-((R)-1-(4-carbamimidoylthiophen-2-yl)ethyl)-4-(methylsulfonyl)-1-((4-phenoxybenzoyl)glycyl)pyrrolidine-2-carboxamide], the IC50 is less than 0.1 µM. With `CC1(c2ccc(OCCCC(=O)NCC(=O)N3[C@H]4C[C@@]4(C)C[C@H]3C(=O)NCc3cc(C(=N)N)cs3)cc2)COC1` [Compound 140, (1S,3S,5S)-N-((4-carbamimidoylthiophen-2-yl)methyl)-5-methyl-2-((4-(4-(3-methyloxetan-3-yl)phenoxy)butanoyl)glycyl)-2-azabicyclo[3.1.0]hexane-3-carboxamide] the figure was less than 0.1 µM; with `C[C@@H](NC(=O)[C@@H]1C[C@]2(COCCNC(=O)COCCOCCNC(=O)COCCOCCNC(=O)CC[C@H](NC(=O)CCCCCCCCCCCCCCCCC(=O)O)C(=O)O)C[C@@H]2N1C(=O)CNC(=O)CCCOc1ccccc1)c1cc(C(=N)N)cs1` [Compound 152, (S)-1-((1S,3S,5R)-3-(((R)-1-(4-carbamimidoylthiophen-2-yl)ethyl)carbamoyl)-2-((4-phenoxybutanoyl)glycyl)-2-azabicyclo[3.1.0]hexan-5-yl)-27-carboxy-6,15,24,29-tetraoxo-2,8,11,17,20-pentaoxa-5,14,23,28-tetraazahexatetracontan-46-oic acid], less than 0.1 µM. As for `COC[C@@H]1C[C@@H](C(=O)N[C@H](C)c2cc(C(=N)N)cs2)N(C(=O)CNC(=O)c2ccc(Oc3ccccc3)cc2)C1` [Compound 253, (2S,4R)-N-((R)-1-(4-carbamimidoylthiophen-2-yl)ethyl)-4-(methoxymethyl)-1-((4-phenoxybenzoyl)glycyl)pyrrolidine-2-carboxamide], the IC50 is less than 0.1 µM.

Take `N=C(N)c1csc(CNC(=O)[C@@H]2CC3(COC3)CN2C(=O)CNC(=O)c2ccc(Oc3ccccc3)cc2)c1` [Compound 262, (S)-N-((4-carbamimidoylthiophen-2-yl)methyl)-6-((4-phenoxybenzoyl)glycyl)-2-oxa-6-azaspiro[3.4]octane-7-carboxamide]: the IC50 is less than 0.1 µM. Take `CC(=O)NCc1cc(C(=O)NCC(=O)N2[C@H]3C[C@@]3(C)C[C@H]2C(=O)NCc2cc(C(=N)N)cs2)ccc1Oc1ccccc1` [Compound 10]: the IC50 was less than 0.1 µM.

Take `C[C@@]12C[C@@H]1N(C(=O)CNC(=O)CCCOc1cccc(C(=O)O)c1)[C@H](C(=O)NCc1cc(C(=N)N)cs1)C2` [Compound 165, 3-(4-((2-((1S,3S,5S)-3-(((4-carbamimidoylthiophen-2-yl)methyl)carbamoyl)-5-methyl-2-azabicyclo[3.1.0]hexan-2-yl)-2-oxoethyl)amino)-4-oxobutoxy)benzoic acid]: the IC50 was less than 0.1 µM. With `C[C@@]12C[C@@H]1N(C(=O)CNC(=O)c1ccc(Oc3ccccc3)cc1)[C@H](C(=O)NCc1cc3c(s1)CCN=C3N)C2` [Compound 182, (1S,3S,5S)-N-((4-amino-6,7-dihydrothieno[3,2-c]pyridin-2-yl)methyl)-5-methyl-2-((4-phenoxybenzoyl)glycyl)-2-azabicyclo[3.1.0]hexane-3-carboxamide] the figure was more than 1 µM. Consider `CC(=O)NCCOC[C@@]12C[C@@H]1N(C(=O)CNC(=O)CCCOc1ccccc1)[C@H](C(=O)N[C@H](C)c1cc(C(=N)N)cs1)C2` [Compound 142, (1S,3S,5R)-5-((2-acetamidoethoxy)methyl)-N-((R)-1-(4-carbamimidoylthiophen-2-yl)ethyl)-2-((4-phenoxybutanoyl)glycyl)-2-azabicyclo[3.1.0]hexane-3-carboxamide], for which the IC50 is 0.1 to 1 µM. Regarding `CNC(=O)C(NC(=O)[C@@H]1C[C@@H](OC(F)F)CN1C(=O)CNC(=O)c1ccc(Oc2ccccc2)cc1)c1cc(C(=N)N)cs1` (stereo partly drawn) [Compound 210, (2S,4R)-N-(1-(4-carbamimidoylthiophen-2-yl)-2-(methylamino)-2-oxoethyl)-4-(difluoromethoxy)-1-((4-phenoxybenzoyl)glycyl)pyrrolidine-2-carboxamide], the IC50 is more than 1 µM. Next, `C[C@@H](NC(=O)[C@@H]1C[C@@]23COCCCCCCCCCCCCCC(=O)N[C@@H](CCOc4ccccc4)C(=O)NCC(=O)N1[C@H]2C3)c1cc(C(=N)N)cs1` [Compound 255, (1R,19S,25S,28S)-N-((R)-1-(4-carbamimidoylthiophen-2-yl)ethyl)-17,20,23-trioxo-19-(2-phenoxyethyl)-3-oxa-18,21,24-triazatricyclo[22.2.2.0^125]octacosane-28-carboxamide]: less than 0.1 µM; `C[C@H](NC(=O)[C@@H]1C[C@]2(C)C[C@@H]2N1C(=O)CNC(=O)c1ccc(Oc2ccccc2)cc1)c1cc(C(=N)N)cs1` (single isomer, unassigned) [Compound 47, (1S,3S,5S)-N-((S*)-1-(4-carbamimidoylthiophen-2-yl)ethyl)-5-methyl-2-((4-phenoxy-benzoyl)glycyl)-2-azabicyclo[3.1.0]hexane-3-carboxamide]: less than 0.1 µM; `C[C@@]12C[C@@H]1N(C(=O)CNC(=O)CCCOc1ccc(C(=O)O)cc1)[C@H](C(=O)NCc1cc(C(=N)N)cs1)C2` [Compound 80, 4-(4-((2-((1S,3S,5S)-3-(((4-carbamimidoylthiophen-2-yl)methyl)carbamoyl)-5-methyl-2-azabicyclo[3.1.0]hexan-2-yl)-2-oxoethyl)amino)-4-oxobutoxy)benzoic acid]: 0.1 to 1 µM.

Regarding `N=C(N)c1csc(CNC(=O)[C@@H]2C[C@](F)(CF)CN2C(=O)CNC(=O)CCCOc2ccccc2)c1` [Compound 33, (2S,4R)-N-((4-carbamimidoylthiophen-2-yl)methyl)-4-fluoro-4-(fluoromethyl)-1-((4-phenoxybutanoyl)glycyl)pyrrolidine-2-carboxamide], the IC50 is less than 0.1 µM. Consider `COc1ccc(CNC(=O)[C@@H]2C[C@]3(C)C[C@@H]3N2C(=O)CNC(=O)c2ccc(Oc3ccccc3)cc2)cc1` [Compound 43, (1S,3S,5S)-N-(4-methoxybenzyl)-5-methyl-2-((4-phenoxy-benzoyl)-glycyl)-2-azabicyclo[3.1.0]hexane-3-carboxamide], for which the IC50 is more than 1 µM. With `Cc1ccc(O[C@@H]2C[C@@H](C(=O)N[C@H](C)c3cc(C(=N)N)cs3)N(C(=O)CNC(=O)CCCOc3ccccc3)C2)cc1` [Compound 131, (2S,4R)-N-((R)-1-(4-carbamimidoylthiophen-2-yl)ethyl)-1-((4-phenoxybutanoyl)glycyl)-4-(p-tolyloxy)pyrrolidine-2-carboxamide] the figure was less than 0.1 µM; with `C[C@@H](NC(=O)[C@@H]1C[C@H](C2CCCCC2)CN1C(=O)CNC(=O)CCCOc1ccccc1)c1cc(C(=N)N)cs1` [Compound 243, (2S,4R)-N-((R)-1-(4-carbamimidoylthiophen-2-yl)ethyl)-4-cyclohexyl-1-((4-phenoxybutanoyl)glycyl)pyrrolidine-2-carboxamide], less than 0.1 µM. Next, `N=C(N)c1csc(C(NC(=O)[C@@H]2C[C@@H](OC(F)F)CN2C(=O)CNC(=O)c2ccc(Oc3ccccc3)cc2)C(=O)O)c1` (stereo partly drawn) [Compound 190, 2-(4-carbamimidoylthiophen-2-yl)-2-((2S,4R)-4-(difluoromethoxy)-1-((4-phenoxybenzoyl)glycyl)pyrrolidine-2-carboxamido)acetic acid]: less than 0.1 µM.

For the origin of these results see US20250171423A1, “PHARMACEUTICAL COMPOUNDS FOR THE TREATMENT OF COMPLEMENT MEDIATED DISORDERS” (Achillion Pharmaceuticals, Inc., priority 2020, published 2025).
